Measurements taken from ChEMBL document CHEMBL1201862, “PubChem BioAssay data set” (2004).
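A five-concentration, 48-hour dose response in 96-well plates underlies each endpoint, interpolated linearly between surrounding concentrations. Abbreviation: GI50, concentration required for 50% inhibition of growth.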 Active and inactive are the calls of the source. Cut-off read from the data, not from the text of the source: active = GI50 up to about 1.1 µM and inactive = higher.

Assays:
Assay in all cases: NCI-60 cell line screen, 48 h
EKVX = test system: EKVX
HOP-92 = test system: HOP-92
SR = test system: SR
SF-268 = test system: SF-268
LOX IMVI = test system: LOX IMVI
RXF 393 = test system: RXF 393
CAKI-1 = test system: CAKI-1
T47D = test system: T47D
K562 = test system: K562
TK-10 = test system: TK-10
OVCAR-5 = test system: OVCAR-5
SNB-19 = test system: SNB-19
HL-60 = test system: HL-60
MDA-MB-435 = test system: MDA-MB-435
OVCAR-4 = test system: OVCAR-4
HT-29 = test system: HT-29
MDA-MB-231 = test system: MDA-MB-231
M14 = test system: M14
IGROV-1 = test system: IGROV-1
786-0 = test system: 786-0
SNB-75 = test system: SNB-75
NCI-H522 = test system: NCI-H522
MOLT-4 = test system: MOLT-4
KM12 = test system: KM12
HCT-15 = test system: HCT-15
UO-31 = test system: UO-31
NCI-H23 = test system: NCI-H23
SF-295 = test system: SF-295
Malme-3M = test system: Malme-3M
SK-MEL-2 = test system: SK-MEL-2
A498 = test system: A498
Hs-578T = test system: Hs-578T
NCI-H226 = test system: NCI-H226
SK-MEL-5 = test system: SK-MEL-5
ACHN = test system: ACHN
COLO 205 = test system: COLO 205
SF-539 = test system: SF-539
NCI-H460 = test system: NCI-H460
HOP-62 = test system: HOP-62
A549 = test system: A549
MDA-N = test system: MDA-N
UACC-257 = test system: UACC-257
SN12C = test system: SN12C
CCRF-CEM = test system: CCRF-CEM
HCT-116 = test system: HCT-116
HCC 2998 = test system: HCC 2998
DU-145 = test system: DU-145
OVCAR-3 = test system: OVCAR-3
SK-MEL-28 = test system: SK-MEL-28
UACC-62 = test system: UACC-62
SW-620 = test system: SW-620
PC-3 = test system: PC-3
SK-OV-3 = test system: SK-OV-3
RPMI-8226 = test system: RPMI-8226
NCI/ADR-RES = test system: NCI/ADR-RES
U-251 = test system: U-251
OVCAR-8 = test system: OVCAR-8
MCF7 = test system: MCF7
BT-549 = test system: BT-549

Measured: GI50

CC(=O)c1c(-c2cccc3ccccc23)c(C#N)c(=S)n(C2OC(CO)C(O)C(O)C2O)c1-c1ccccc1 (stereo unspecified)
inactive: HOP-92 13.5 µM
active: EKVX 0.0509 µM

C=C1CCC2[C@](C)(CCC[C@]2(C)C(=O)O)[C@@H]1CCc1ccoc1 (stereo partly specified)
26.8 µM: HCT-15
inactive: SR 27 µM | SF-268 50.4 µM | LOX IMVI 16.9 µM | RXF 393 36.2 µM | CAKI-1 32.8 µM | T47D 57.8 µM | K562 53.5 µM | TK-10 24.2 µM | OVCAR-5 90.6 µM | SNB-19 43.5 µM | HL-60 45.8 µM | MDA-MB-435 41.3 µM | OVCAR-4 48.6 µM | HT-29 24.2 µM | MDA-MB-231 49.2 µM | M14 41.1 µM | IGROV-1 32.4 µM | 786-0 48.6 µM | SNB-75 67.3 µM | NCI-H522 68.5 µM | MOLT-4 32.5 µM | KM12 18.7 µM | UO-31 36.5 µM | NCI-H23 21.4 µM | SF-295 47.5 µM | Malme-3M 32.2 µM | SK-MEL-2 29.4 µM | A498 47 µM | Hs-578T 33.2 µM | NCI-H226 20.6 µM | SK-MEL-5 36.6 µM | ACHN 41.7 µM | COLO 205 17.4 µM | SF-539 37 µM | NCI-H460 33.9 µM | EKVX 34.3 µM | HOP-62 40.6 µM | A549 34.5 µM | MDA-N 61.8 µM | UACC-257 29 µM | SN12C 33.5 µM | CCRF-CEM 40.7 µM | HCT-116 33.7 µM | HCC 2998 43.8 µM | DU-145 43.5 µM | OVCAR-3 24 µM | SK-MEL-28 61.1 µM | UACC-62 35.2 µM | SW-620 53.7 µM | PC-3 46 µM | SK-OV-3 > 100 µM | RPMI-8226 44.7 µM | NCI/ADR-RES 38.5 µM

C=C1CN=C(Nc2ccc(Cl)cc2)S1
> 100 µM: HCT-15
inactive: SR 52.8 µM | SF-268 > 100 µM | LOX IMVI 62.1 µM | U-251 93.3 µM | CAKI-1 > 10 µM | T47D > 100 µM | K562 96.8 µM | TK-10 > 100 µM | OVCAR-5 > 100 µM | SNB-19 > 100 µM | HL-60 > 10 µM | OVCAR-4 > 100 µM | HT-29 > 100 µM | MDA-MB-231 > 100 µM | M14 > 100 µM | IGROV-1 > 100 µM | 786-0 > 100 µM | SNB-75 > 100 µM | MOLT-4 > 10 µM | KM12 66.7 µM | UO-31 > 100 µM | NCI-H23 > 100 µM | SF-295 > 100 µM | Malme-3M > 100 µM | SK-MEL-2 > 100 µM | A498 > 100 µM | OVCAR-8 > 100 µM | Hs-578T > 100 µM | SK-MEL-5 > 100 µM | ACHN > 100 µM | COLO 205 > 100 µM | SF-539 > 100 µM | NCI-H460 > 100 µM | EKVX > 100 µM | HOP-62 > 100 µM | A549 > 100 µM | HOP-92 28.2 µM | MDA-N > 100 µM | UACC-257 > 100 µM | SN12C > 100 µM | CCRF-CEM 71 µM | HCT-116 > 100 µM | HCC 2998 > 100 µM | DU-145 > 100 µM | OVCAR-3 > 100 µM | SK-MEL-28 > 100 µM | SW-620 > 100 µM | PC-3 > 100 µM | MCF7 45.6 µM | SK-OV-3 > 100 µM | RPMI-8226 83.8 µM | NCI/ADR-RES > 100 µM

COC1OC(COC(=O)c2cc(O)c(O)c(O)c2)C(OC(=O)c2cc(O)c(O)c(O)c2)C(OC(=O)c2cc(O)c(O)c(O)c2)C1OC(=O)c1cc(O)c(O)c(O)c1 (stereo unspecified)
inactive: SR 11.1 µM | SF-268 27 µM | LOX IMVI 13.5 µM | U-251 10.6 µM | RXF 393 64.1 µM | CAKI-1 41.4 µM | T47D 52.4 µM | K562 21.5 µM | TK-10 > 100 µM | OVCAR-5 57.5 µM | SNB-19 43.4 µM | HL-60 18.4 µM | MDA-MB-435 12.9 µM | OVCAR-4 41.3 µM | HT-29 33.5 µM | MDA-MB-231 26.2 µM | M14 13.1 µM | IGROV-1 27.4 µM | 786-0 13.3 µM | SNB-75 26.3 µM | NCI-H522 15 µM | MOLT-4 11.8 µM | KM12 22.4 µM | UO-31 17.1 µM | NCI-H23 78.5 µM | SF-295 34.9 µM | Malme-3M 27.9 µM | SK-MEL-2 > 100 µM | A498 1.77 µM | OVCAR-8 27.2 µM | Hs-578T > 100 µM | NCI-H226 4.48 µM | SK-MEL-5 13.3 µM | ACHN 19 µM | COLO 205 39.4 µM | SF-539 12.4 µM | NCI-H460 9.2 µM | EKVX 25.9 µM | HOP-62 7.33 µM | A549 33 µM | HOP-92 74 µM | MDA-N 27.8 µM | UACC-257 > 100 µM | SN12C 27.2 µM | CCRF-CEM 12.8 µM | HCT-116 33 µM | HCC 2998 58.2 µM | DU-145 69.5 µM | OVCAR-3 29.9 µM | SK-MEL-28 > 100 µM | UACC-62 14.4 µM | SW-620 31.6 µM | PC-3 50.7 µM | MCF7 > 100 µM | SK-OV-3 4.78 µM | RPMI-8226 28.3 µM | NCI/ADR-RES 29.2 µM
47.2 µM: HCT-15

CC(=O)NC(C)(C)C1CC=C(C)/C(=N\O)C1 (stereo unspecified)
> 100 µM: HCT-15
inactive: SR > 100 µM | SF-268 > 100 µM | LOX IMVI > 100 µM | U-251 > 100 µM | T47D > 100 µM | K562 > 100 µM | TK-10 > 100 µM | OVCAR-5 > 100 µM | SNB-19 > 100 µM | HL-60 > 100 µM | MDA-MB-435 > 100 µM | OVCAR-4 > 100 µM | HT-29 > 100 µM | MDA-MB-231 > 100 µM | M14 > 100 µM | IGROV-1 > 100 µM | 786-0 > 100 µM | SNB-75 > 100 µM | NCI-H522 > 100 µM | MOLT-4 > 100 µM | KM12 > 100 µM | UO-31 > 100 µM | NCI-H23 > 100 µM | SF-295 > 100 µM | OVCAR-8 > 100 µM | SK-MEL-5 > 100 µM | COLO 205 > 100 µM | SF-539 > 100 µM | NCI-H460 > 100 µM | EKVX > 100 µM | HOP-62 > 100 µM | A549 > 100 µM | HOP-92 > 100 µM | MDA-N > 100 µM | UACC-257 > 100 µM | SN12C > 100 µM | CCRF-CEM > 100 µM | HCT-116 > 100 µM | HCC 2998 > 100 µM | DU-145 > 100 µM | OVCAR-3 > 100 µM | SK-MEL-28 > 100 µM | UACC-62 > 100 µM | SW-620 > 100 µM | BT-549 > 100 µM | PC-3 > 100 µM | MCF7 > 100 µM | SK-OV-3 > 100 µM

O=C1C=CC2C3C(=O)N(c4ccccc4)C(=O)C3C1N2Cc1ccccc1 (stereo unspecified)
inactive: Hs-578T 3.51 µM | NCI-H226 8.07 µM | COLO 205 3.1 µM | HOP-62 3.72 µM

CC(C)(C)C(=O)C(C(=O)c1ccccc1)C(=O)C(C)(C)C
> 100 µM: HCT-15
inactive: SF-268 > 100 µM | LOX IMVI > 100 µM | U-251 > 100 µM | RXF 393 > 100 µM | CAKI-1 > 100 µM | T47D > 100 µM | K562 > 100 µM | TK-10 > 100 µM | OVCAR-5 > 100 µM | SNB-19 > 100 µM | HL-60 > 100 µM | MDA-MB-435 > 100 µM | OVCAR-4 64.7 µM | HT-29 > 100 µM | MDA-MB-231 98.2 µM | M14 > 100 µM | IGROV-1 > 100 µM | 786-0 > 100 µM | SNB-75 > 100 µM | NCI-H522 > 100 µM | MOLT-4 > 100 µM | KM12 > 100 µM | UO-31 > 100 µM | NCI-H23 > 100 µM | SF-295 > 100 µM | Malme-3M > 100 µM | SK-MEL-2 > 100 µM | A498 > 100 µM | OVCAR-8 48.5 µM | Hs-578T > 100 µM | NCI-H226 > 100 µM | SK-MEL-5 > 100 µM | ACHN > 100 µM | COLO 205 > 100 µM | SF-539 > 100 µM | NCI-H460 > 100 µM | EKVX > 100 µM | HOP-62 > 100 µM | A549 > 100 µM | HOP-92 > 100 µM | MDA-N > 100 µM | UACC-257 > 100 µM | SN12C > 100 µM | CCRF-CEM > 100 µM | HCT-116 56.1 µM | HCC 2998 > 100 µM | DU-145 > 100 µM | OVCAR-3 > 100 µM | SK-MEL-28 > 100 µM | SW-620 > 100 µM | PC-3 > 100 µM | MCF7 > 100 µM | SK-OV-3 > 100 µM | RPMI-8226 > 100 µM | NCI/ADR-RES 30.5 µM
